What was measured:
[1] = system: cytokine IL-8; experiment: Inhibition of LPS-triggered IL-8 secretion in THP-1 cells (ELISA of supernatant); assay type: cell-based; conditions: Homo sapiens
Experimental: The concentration of the cytokines was determined in the supernatant by means of commercially available ELISA kits.

[2] = target: T1, androgen receptor (AR) (Homo sapiens, UniProt P10275); experiment: Binding to recombinantly produced androgen receptor
T1 construct: made in house
T1 sequence (P10275 1-920): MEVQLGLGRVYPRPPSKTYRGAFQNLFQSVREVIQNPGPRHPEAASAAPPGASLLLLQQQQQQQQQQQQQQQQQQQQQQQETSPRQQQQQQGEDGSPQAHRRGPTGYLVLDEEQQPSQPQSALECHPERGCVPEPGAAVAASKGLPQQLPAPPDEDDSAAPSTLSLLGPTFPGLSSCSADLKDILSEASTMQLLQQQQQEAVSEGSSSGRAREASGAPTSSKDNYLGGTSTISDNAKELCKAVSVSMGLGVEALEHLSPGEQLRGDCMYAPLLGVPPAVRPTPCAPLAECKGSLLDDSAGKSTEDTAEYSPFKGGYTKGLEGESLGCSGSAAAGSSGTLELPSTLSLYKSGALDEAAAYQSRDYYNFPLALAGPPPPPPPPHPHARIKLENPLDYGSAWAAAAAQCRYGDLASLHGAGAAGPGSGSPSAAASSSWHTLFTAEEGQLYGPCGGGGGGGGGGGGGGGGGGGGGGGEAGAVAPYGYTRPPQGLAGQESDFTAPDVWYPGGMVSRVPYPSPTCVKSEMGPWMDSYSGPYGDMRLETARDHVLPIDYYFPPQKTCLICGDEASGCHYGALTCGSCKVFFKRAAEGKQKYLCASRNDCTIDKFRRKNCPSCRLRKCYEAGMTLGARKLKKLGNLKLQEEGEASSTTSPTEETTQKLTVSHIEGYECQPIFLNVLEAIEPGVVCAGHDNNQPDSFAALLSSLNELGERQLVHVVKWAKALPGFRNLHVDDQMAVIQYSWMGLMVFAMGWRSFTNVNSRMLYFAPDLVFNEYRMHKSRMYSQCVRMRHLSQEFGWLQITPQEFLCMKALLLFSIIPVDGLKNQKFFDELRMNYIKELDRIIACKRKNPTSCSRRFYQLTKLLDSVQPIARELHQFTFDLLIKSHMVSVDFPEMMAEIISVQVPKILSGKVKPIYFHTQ
Description: (§1) The binding of the substances to the glucocorticoid receptor (GR) and other steroid hormone receptors (mineral corticoid receptor (MR), progesterone receptor (PR) and androgen receptor (AR)) is examined with the aid of recombinantly produced receptors. Cytosol preparations of Sf9 cells, which had been infected with recombinant baculoviruses, which code for the GR, are used for the binding studies. In comparison to reference substance [^3H]-dexamethasone, the substances show a high to very high affinity to GR.

[3] = target: T2, glucocorticoid receptor (GR) (Homo sapiens, UniProt P04150); experiment: Binding to recombinantly produced glucocorticoid receptor (cytosol of baculovirus-infected Sf9 cells, [3H]-dexamethasone as reference); conditions: recombinant GR, Sf9 cytosol preparations
T2 construct: made in house; host or cells: Sf9 cells infected with recombinant baculovirus (cytosol preparation)
T2 sequence (P04150 1-777): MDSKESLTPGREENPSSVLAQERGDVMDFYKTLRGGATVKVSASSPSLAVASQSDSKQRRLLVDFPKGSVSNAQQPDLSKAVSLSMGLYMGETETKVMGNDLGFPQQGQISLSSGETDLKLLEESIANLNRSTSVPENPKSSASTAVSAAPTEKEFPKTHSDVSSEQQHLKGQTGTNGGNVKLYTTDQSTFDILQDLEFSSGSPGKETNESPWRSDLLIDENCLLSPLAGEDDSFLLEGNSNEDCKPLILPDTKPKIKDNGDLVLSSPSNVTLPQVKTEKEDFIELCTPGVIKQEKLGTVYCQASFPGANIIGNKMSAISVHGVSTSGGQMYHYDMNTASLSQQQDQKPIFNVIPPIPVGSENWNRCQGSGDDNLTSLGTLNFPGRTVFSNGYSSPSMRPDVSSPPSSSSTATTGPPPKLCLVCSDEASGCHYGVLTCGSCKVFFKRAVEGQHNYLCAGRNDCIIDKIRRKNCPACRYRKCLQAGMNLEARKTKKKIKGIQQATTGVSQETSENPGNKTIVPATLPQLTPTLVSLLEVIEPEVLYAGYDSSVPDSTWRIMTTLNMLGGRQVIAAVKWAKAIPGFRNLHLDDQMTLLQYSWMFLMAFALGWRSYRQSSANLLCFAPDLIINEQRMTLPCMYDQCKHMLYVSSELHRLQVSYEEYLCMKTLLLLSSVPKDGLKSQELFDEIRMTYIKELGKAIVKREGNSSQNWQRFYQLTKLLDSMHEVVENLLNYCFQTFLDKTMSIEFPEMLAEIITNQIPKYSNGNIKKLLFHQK
Description: as §1

[4] = target: T3, mineral corticoid receptor (MR) (Homo sapiens, UniProt P08235); experiment: Binding to recombinantly produced mineral corticoid receptor
T3 construct: made in house
T3 sequence (P08235 1-984): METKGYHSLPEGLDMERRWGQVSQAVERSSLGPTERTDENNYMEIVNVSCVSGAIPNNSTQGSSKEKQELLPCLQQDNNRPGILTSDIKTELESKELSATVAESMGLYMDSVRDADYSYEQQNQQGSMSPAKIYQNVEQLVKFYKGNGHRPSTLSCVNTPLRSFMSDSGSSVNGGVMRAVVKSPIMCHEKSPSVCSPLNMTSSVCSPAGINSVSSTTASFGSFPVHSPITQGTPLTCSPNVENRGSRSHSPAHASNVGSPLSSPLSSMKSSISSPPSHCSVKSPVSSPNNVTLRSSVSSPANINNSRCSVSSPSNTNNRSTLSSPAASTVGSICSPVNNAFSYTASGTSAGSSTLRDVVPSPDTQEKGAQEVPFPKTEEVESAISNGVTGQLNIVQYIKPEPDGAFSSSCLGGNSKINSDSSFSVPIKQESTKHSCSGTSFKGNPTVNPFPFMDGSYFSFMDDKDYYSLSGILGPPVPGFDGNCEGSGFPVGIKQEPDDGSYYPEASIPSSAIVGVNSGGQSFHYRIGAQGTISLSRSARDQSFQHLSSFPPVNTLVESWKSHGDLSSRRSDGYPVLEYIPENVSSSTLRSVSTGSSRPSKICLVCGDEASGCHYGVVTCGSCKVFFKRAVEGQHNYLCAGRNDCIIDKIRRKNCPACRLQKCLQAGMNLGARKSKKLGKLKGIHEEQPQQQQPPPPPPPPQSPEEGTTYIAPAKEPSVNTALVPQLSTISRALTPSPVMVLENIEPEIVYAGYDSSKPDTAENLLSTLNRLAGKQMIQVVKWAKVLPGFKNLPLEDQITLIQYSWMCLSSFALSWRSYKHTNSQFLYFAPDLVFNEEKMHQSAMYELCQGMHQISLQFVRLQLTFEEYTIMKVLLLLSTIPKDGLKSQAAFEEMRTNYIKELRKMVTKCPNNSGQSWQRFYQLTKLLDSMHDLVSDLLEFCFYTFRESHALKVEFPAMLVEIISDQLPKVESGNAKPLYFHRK
Description: as §1

[5] = target: T4, progesterone receptor (PR) (Homo sapiens, UniProt P06401); experiment: Binding to recombinantly produced progesterone receptor
T4 construct: made in house
T4 sequence (P06401 1-933): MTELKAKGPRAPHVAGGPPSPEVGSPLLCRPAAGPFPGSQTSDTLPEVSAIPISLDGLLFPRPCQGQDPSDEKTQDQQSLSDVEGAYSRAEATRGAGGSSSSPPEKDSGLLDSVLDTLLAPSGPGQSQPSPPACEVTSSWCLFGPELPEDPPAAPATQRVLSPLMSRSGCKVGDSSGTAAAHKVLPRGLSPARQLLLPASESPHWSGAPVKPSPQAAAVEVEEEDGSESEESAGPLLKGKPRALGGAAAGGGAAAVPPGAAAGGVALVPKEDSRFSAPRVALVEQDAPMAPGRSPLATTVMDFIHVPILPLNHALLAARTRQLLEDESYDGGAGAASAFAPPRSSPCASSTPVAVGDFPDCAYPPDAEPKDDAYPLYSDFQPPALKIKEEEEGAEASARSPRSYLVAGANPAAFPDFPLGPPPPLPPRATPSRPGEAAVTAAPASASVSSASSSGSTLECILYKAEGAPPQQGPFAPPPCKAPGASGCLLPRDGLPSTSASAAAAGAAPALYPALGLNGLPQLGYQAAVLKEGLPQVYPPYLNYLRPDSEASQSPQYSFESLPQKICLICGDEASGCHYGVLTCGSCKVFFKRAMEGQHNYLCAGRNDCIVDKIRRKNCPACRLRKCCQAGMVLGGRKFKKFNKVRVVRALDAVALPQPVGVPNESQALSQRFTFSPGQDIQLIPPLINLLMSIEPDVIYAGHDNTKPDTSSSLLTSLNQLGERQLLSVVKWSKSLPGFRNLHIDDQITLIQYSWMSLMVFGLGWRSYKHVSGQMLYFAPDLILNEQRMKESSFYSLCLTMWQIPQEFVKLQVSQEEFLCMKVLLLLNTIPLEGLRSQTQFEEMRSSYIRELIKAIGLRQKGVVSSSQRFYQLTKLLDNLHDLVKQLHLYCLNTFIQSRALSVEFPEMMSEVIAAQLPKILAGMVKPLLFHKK
Description: as §1

[6] = target: ER; experiment: Binding to ER (steroid receptor selectivity profile)

Row | IC50 ([1]; LPS-triggered IL-8 secretion, read-out: IC50(IL8)) | IC50 [2] | IC50 [3] | IC50 [4] | IC50 [5] | IC50 [6] | Compound | Emax ([1]; efficacy of IL-8 inhibition, LPS, read-out: eff. relative to dexamethasone)
1 | 30 nM |  |  |  |  |  | COc1c(C(C)C)ccc2c1C(C)(C)CC(O)(C(F)(F)F)C2Nc1cccc2c1ccc(=O)n2-c1ccc(F)nc1 (stereo not shown) [Example 1, 5-{[2-Hydroxy-6-isopropyl-5-methoxy-4,4-dimethyl-2-(trifluoromethyl)-1,2,3,4-tetrahydronaphthalene-1-yl]amino}-1-(6-fluoropyridine-3-yl)-1H-quinoline-2-one] | 84.1%
2 |  | > 1000 nM | 32 nM | > 1000 nM | > 1000 nM | > 1000 nM | CC(C)c1ccc2c(c1O)C(C)(C)CC(O)(C(F)(F)F)C2Nc1cccc2c1ccc(=O)n2-c1ccc(F)nc1 (stereo not shown) [Example 2, 5-{[2,5-Dihydroxy-6-isopropyl-4,4-dimethyl-2-(trifluoromethyl)-1,2,3,4-tetrahydronaphthalene-1-yl]amino}-1-(6-fluoropyridine-3-yl)-1H-quinoline-2-one] | 

Reference: patent EP2072509A1, “1-Aryl-1H-quinoline-2-ones: process for their production and their use as anti-inflammatory agents” (Bayer Schering Pharma Aktiengesellschaft, priority 2007, dated 2009)
